Results taken from PubChem BioAssay (NCI).
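Following 48 hours of exposure in 96-well plates, responses at five concentrations were used to interpolate endpoints linearly. At the GI50, growth is halved. Definition used: TGI = concentration required for complete inhibition of growth.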

Key:
Experiment in all cases: growth of human tumour cells (NCI), 48 h
LXFL 529 NSCLC = test system: LXFL 529 NSCLC
DMS 114 small cell lung = test system: DMS 114 small cell lung
HOP-18 NSCLC = test system: HOP-18 NSCLC
DU-145 prostate = test system: DU-145 prostate
MDA-MB-435 = test system: MDA-MB-435
PC-3 prostate = test system: PC-3 prostate
NCI/ADR-RES ovarian = test system: NCI/ADR-RES ovarian
MDA-N = test system: MDA-N

Row | SMILES | TGI (LXFL 529 NSCLC) | TGI (DMS 114 small cell lung) | TGI (HOP-18 NSCLC) | GI50 (DU-145 prostate) | TGI (DU-145 prostate) | GI50 (MDA-MB-435) | TGI (MDA-MB-435) | GI50 (PC-3 prostate) | TGI (PC-3 prostate) | GI50 (NCI/ADR-RES ovarian) | TGI (NCI/ADR-RES ovarian) | TGI (MDA-N)
1 | O=C(NCCCN1CCN(CCCNC(=O)Nc2cc(Cl)ccc2Cl)CC1)Nc1cc(Cl)ccc1Cl | > 100 µM | > 100 µM | > 100 µM |  |  |  |  |  |  |  |  | 
2 | CC(=O)c1nc(-c2ccc(C[C@@H](CNC(=O)CN(C)C)NC(=O)c3ccc(OC(C)C)c(Cl)c3)cc2)cn1C |  |  |  | 0.032 µM | 11.4 µM | 0.0297 µM | 14 µM | 0.0652 µM | 19.6 µM | 0.511 µM | 18.3 µM | 
3 | O=C(OCC1=CC(=O)c2ccccc2C1=O)c1ccccc1 |  |  |  | 1.83 µM | 3.6 µM | 1.98 µM | 3.66 µM | 14.1 µM | 38 µM | 21.7 µM | 60.1 µM | 
4 | COC(=O)c1c(C(=O)O)c(-c2ccccc2)c(-c2ccccc2)c(-c2ccccc2)c1-c1ccccc1 |  |  |  | > 100 µM | > 100 µM | > 100 µM | > 100 µM | > 100 µM | > 100 µM | > 100 µM | > 100 µM | 
5 | O=C(O)C1CC2C=CCC(C2)C1 (stereo not drawn) | > 100 µM | > 100 µM | > 100 µM |  |  |  |  |  |  |  |  | 
6 | CCOC1=C/C(=N\Nc2ccc([N+](=O)[O-])cc2)CCC1 |  |  |  |  | > 100 µM |  | > 100 µM |  | > 100 µM |  | > 100 µM | 
7 | CCCCS(=O)(=O)c1cc(Nc2ccc(O)c3c2C(=O)c2ccccc2C3=O)ccc1C |  |  |  | 5.01 µM | > 100 µM |  |  | > 100 µM | > 100 µM | > 100 µM | > 100 µM | 
8 | COc1cc(C=NCC(=O)CSC(c2ccccc2)c2ccccc2)ccc1O |  |  |  | 12.2 µM | 37.8 µM | 14.3 µM | 35.7 µM | 9.26 µM | 28.2 µM | 7.78 µM | 29.2 µM | 
9 | Cc1nc(C(=O)OCc2ccccc2)cc(OCc2ccccc2)c1C |  |  |  | 17 µM | 41.4 µM | 18.5 µM | > 54.6 µM | 21 µM | > 69.8 µM | 14.1 µM | 37.4 µM | 
10 | COc1c(OC2OC(C)C(O)C(O)C2O)c(OC)c2oc(-c3ccc(O)cc3)cc(=O)c2c1O (stereo not drawn) |  |  |  | 24.1 µM | 52.8 µM | 29.1 µM | 78.5 µM | 34.8 µM | > 100 µM | 87.2 µM | > 100 µM | 
11 | C=C(CN1CCc2ccccc2C1)c1ccc(CCCC(=O)Nc2ccccc2N)cc1 |  |  |  | 11.3 µM | 30.4 µM | 11.9 µM | 26.4 µM | 10.5 µM | 30.3 µM | 17.4 µM | 51.6 µM | 
12 | CC(C)C(Br)C(=O)NCC(=O)O (stereo not drawn) |  |  |  |  | > 100 µM |  | > 100 µM |  | > 100 µM |  | > 100 µM | > 100 µM
13 | CCOC(=O)NN1C(=O)C(=P(c2ccccc2)(c2ccccc2)c2ccccc2)C(C(=O)OC)=C1C | > 100 µM | > 100 µM | > 100 µM |  |  |  |  |  |  |  |  | 
14 | COc1ccc2c(CN3CCCC[C@H]3O)cc3cc4c(cc3c2c1)OCO4 |  |  |  | 0.475 µM | 7.24 µM | 0.422 µM | 1.62 µM | 0.467 µM | 3.53 µM | 0.435 µM | 6.94 µM | 
